From patent US20050250677A1, “Glycopeptide antibiotic derivatives” (priority 2002, published 2005)
Read-outs that look alike come from different tables or passages of the source.

Key:
VZV (wild-type strains) = assay: Anti-VZV assay (wild-type strains): virus-induced cytopathicity in HEL cell cultures; format: cell-based, varicella-zoster virus; conditions: HEL cell cultures
HEL cells [1] = conditions: anti-VZV table
in vitro [2] = conditions: human
[3] = test system: SARS virus (strain Frankfurt-1); assay: microbe, parasite or virus in culture; format: cell-based, human corona (SARS) virus; conditions: Severe acute respiratory syndrome coronavirus, Vero, read-out: EC50 SARS virus
in vitro [4] = conditions: cat
in vitro [5] = conditions: monkey (simian)
FCV = assay: Feline corona virus assay in Feline Crandel kidney cells (MTS); format: cell-based; conditions: Felis catus, read-out: EC50 FCV
Protocol: Feline Crandel kidney cells were seeded in 96-well microtiter plates at 24,000 cells/well. Then, 24 hrs later, an appropriate inoculum of FCV is added together with 5-fold dilutions of the test compounds. After 4 days, a MTS/PMS solution was added to each well. Following a 90 min incubation period at 37° C., the optical density of the wells was read at 498 nm in a microplate reader.

BVDV-1 (strain PE515) = assay: Anti-BVDV assay in MDBK cells (MTS); format: cell-based, bovine viral diarrhea virus
Protocol: Cells and viruses: Madin-Darby Bovine Kidney (MDBK) cells were maintained in Dulbecco's modified Eagle medium (DMEM) supplemented with BVDV-free 5% fetal calf serum (DMBM-FCS) at 37° C. in a humidified, 5% CO2 atmosphere. BVDV-1 (strain PE515) was used to assess the antiviral activity in MDBK cells. Vero cells (ATCC CCL81) were maintained in MEM medium supplemented with 10% inactivated calf serum, 1% L-glutamine and 0.3% bicarbonate.
Anti-BVDV assay: Ninety-six-well cell culture plates were seeded with MDBK cells in DMEM-FCS so that cells reached 24 hr later confluency. Then medium was removed and serial 5-fold dilutions of the test compounds were added in a total volume of 100 ul, after which the virus inoculum (100 ul) was added to each well. […] Uninfected cells and cells receiving virus without compound were included in each assay plate. After 5 days, medium was removed and 90 μt of DMEM-FCS and 10 ul of MTS/PMS solution (Promega) was added to each well. Following a 2 hr incubation period at 37° C. the optical density of the wells was read at 498 nm in a microplate reader.

HEL cells [6] = conditions: read-out: CC50 (HEL); HEL cells; anti-VZV table

For `COC(=O)C1NC(=O)C2NC(=O)C(NC(=O)C(N)c3cc(Oc4ccc(CC(NC(=O)OCc5ccccc5)C(=O)O)cc4Cl)c(O)c(c3)Oc3ccc(cc3Cl)C2O)c2ccc(O)c(c2)-c2c(O)cc(O)cc21` (centres unmarked) [Compound 169], the EC50 (VZV (wild-type strains); Human alphaherpesvirus 3, VZV strain OKA, read-out: EC50 VZV (OKA)) was 34 µM, the “MTC (HEL)” value (HEL cells [1]) was over 200 µM and the CC50 (in vitro [2]) was 50 µM.

In the case of `NC1Cc2ccc(c(Cl)c2)Oc2cc3cc(c2O)Oc2ccc(cc2Cl)C(O)C2NC(=O)C(NC(=O)C3NC(=O)C(c3cc(O)cc(Oc4cc(C5NC(=S)N(c6ccccc6)C5=O)ccc4O)c3)NC1=O)c1ccc(O)c(c1)-c1c(O)cc(O)cc1C(C(=O)O)NC2=O` (centres unmarked) [Compound 171], the EC50 [3] is reported as 29 µM, the CC50 (in vitro [4]) is reported as over 100 µM and the CC50 (in vitro [5]) is reported as over 100 µM.

For `NC1C(=O)NC2Cc3ccc(c(Cl)c3)Oc3cc4cc(c3O)Oc3ccc(cc3Cl)C(O)C(C(=O)O)NC(=O)C(c3ccc(O)c(-c5c(O)cc(O)cc5C(N)C(=O)O)c3)NC(=O)C4NC(=O)C(NC2=O)c2cc(O)cc(c2)Oc2cc1ccc2O` (centres unmarked) [Compound 172], the EC50 (FCV) was at least 100 µM, the EC50 [3] was 38 µM and the CC50 (in vitro [4]) was over 100 µM. The CC50 (in vitro [5]) was over 100 µM.

In the case of `CCCCCCCCCCN1CCN(C(=O)C2NC(=O)C3NC(=O)C(NC(=O)C4NC(=O)C5NC(=O)C(Cc6ccc(c(Cl)c6)Oc6cc4cc(c6O)Oc4ccc(cc4Cl)C3O)NC(=O)C(N)c3ccc(O)c(c3)Oc3cc(O)cc5c3)c3ccc(O)c(c3)-c3c(O)cc(O)cc32)CC1` (centres unmarked) [Compound 126], the EC50 (VZV (wild-type strains); VZV strain OKA, read-out: EC50 VZV (OKA)) is reported as 1 µM, the EC50 (VZV (wild-type strains); VZV strain YS, read-out: EC50 VZV (YS)) is reported as 0.3 µM and the “activity against BVDV” value (BVDV-1 (strain PE515)) is reported as “activity”. For the same compound, the EC50 (BVDV-1 (strain PE515); MDBK cells) was 12 µM, the “MTC (HEL)” value (HEL cells [1]) was over 5 to 50 µM and the CC50 (HEL cells [6]) was over 50 µM. For the same compound, the “MTC (MDBK)” value (MDBK cells) was 60.
